# According to patent US12384770B2, “Heterocyclic compound” (Takeda Pharmaceutical Company Limited, priority 2019, dated 2025):
# Biological target: T1, HDAC6 enzyme (Homo sapiens, UniProt Q9UBN7)
# T1 construct: HDAC6 enzyme prepared by transducing full length HDAC6 gene into Sf-9 insect cells; GST; purchased SignalChem; host or cells: Sf-9 insect cells
# T1 sequence (Q9UBN7 1-1215): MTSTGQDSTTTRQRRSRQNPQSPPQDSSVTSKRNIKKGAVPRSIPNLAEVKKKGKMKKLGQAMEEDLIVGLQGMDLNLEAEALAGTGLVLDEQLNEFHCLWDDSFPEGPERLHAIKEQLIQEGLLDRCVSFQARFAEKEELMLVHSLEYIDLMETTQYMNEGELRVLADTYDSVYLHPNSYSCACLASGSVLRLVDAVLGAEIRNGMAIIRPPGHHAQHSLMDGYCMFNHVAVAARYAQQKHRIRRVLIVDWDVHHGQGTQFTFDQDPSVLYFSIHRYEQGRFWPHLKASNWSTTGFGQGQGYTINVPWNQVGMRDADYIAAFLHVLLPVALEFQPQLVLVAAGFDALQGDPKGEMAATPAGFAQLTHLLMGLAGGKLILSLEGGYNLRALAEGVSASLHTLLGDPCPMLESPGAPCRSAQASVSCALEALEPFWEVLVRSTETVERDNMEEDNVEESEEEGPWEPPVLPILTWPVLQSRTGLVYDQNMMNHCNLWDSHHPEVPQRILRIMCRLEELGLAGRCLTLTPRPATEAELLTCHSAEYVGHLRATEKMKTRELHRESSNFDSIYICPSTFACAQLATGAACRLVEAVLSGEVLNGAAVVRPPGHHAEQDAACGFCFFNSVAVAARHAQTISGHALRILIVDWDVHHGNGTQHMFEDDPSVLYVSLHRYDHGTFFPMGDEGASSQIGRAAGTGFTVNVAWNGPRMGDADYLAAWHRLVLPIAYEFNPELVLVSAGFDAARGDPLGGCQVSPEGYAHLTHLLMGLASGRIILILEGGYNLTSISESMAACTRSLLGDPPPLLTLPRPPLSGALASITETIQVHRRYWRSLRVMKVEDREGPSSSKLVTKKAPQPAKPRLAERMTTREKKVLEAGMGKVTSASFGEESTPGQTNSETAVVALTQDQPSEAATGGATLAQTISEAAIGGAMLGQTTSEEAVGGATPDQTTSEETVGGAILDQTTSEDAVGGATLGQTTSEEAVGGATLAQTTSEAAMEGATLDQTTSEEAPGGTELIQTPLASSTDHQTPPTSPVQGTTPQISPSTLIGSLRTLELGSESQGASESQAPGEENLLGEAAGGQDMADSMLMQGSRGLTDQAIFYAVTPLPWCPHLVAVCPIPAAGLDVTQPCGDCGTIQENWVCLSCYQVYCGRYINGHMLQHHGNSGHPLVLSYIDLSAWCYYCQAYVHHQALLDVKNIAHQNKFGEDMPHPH
# Experiment: HDAC6 enzyme inhibitory assay (HDAC-Glo I/II Assay kit)
# Assay type: biochemical
# Details: wells without enzyme = 100% inhibition; for inhibition at 10 µM: read-out: HDAC6 inhibitory rate (%) (10 μM)
# How it was run: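 Full-length GST-purified HDAC6 from Sf-9 cells preincubated with compound 60 min at room temperature in Tris-HCl pH 7.5 buffer with MgCl2, KCl, NaCl, glutathione, Tween-20. Substrate-developer reaction 20 min, luminescence read; no-enzyme wells set as 100% inhibition.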
SMILES,inhibition at 10 µM [%],also measured
"O=C1c2cc(-c3nnc(C(F)F)o3)ccc2CN1[C@H](C1CCOCC1)[C@@H](O)c1ccc(F)c(F)c1 (single isomer, unassigned) [Example 87, 6-[5-(difluoromethyl)-1,3,4-oxadiazol-2-yl]-2-[(1R*,2S*)-2-(3,4-difluorophenyl)-2-hydroxy-1-(oxan-4-yl)ethyl]-2,3-dihydro-1H-isoindol-1-one]",100,–
"O=C1c2cc(-c3nnc(C(F)F)o3)ccc2CN1[C@H](c1ccccn1)[C@@H](O)c1cccc(F)c1 (single isomer, unassigned) [Example 62, 6-[5-(difluoromethyl)-1,3,4-oxadiazol-2-yl]-2-[(1R*,2S*)-2-(3-fluorophenyl)-2-hydroxy-1-(pyridin-2-yl)ethyl]-2,3-dihydro-1H-isoindol-1-one]",–,HDAC6 inhibitory rate (%) (10 μM): 100%
"O=C1c2cc(-c3nnc(C(F)F)o3)ccc2CN1[C@H](c1ccc(F)cc1)[C@@H](O)c1cccnc1 (single isomer, unassigned) [Example 52, 6-[5-(difluoromethyl)-1,3,4-oxadiazol-2-yl]-2-[(1R*,2S*)-1-(4-fluorophenyl)-2-hydroxy-2-(pyridin-3-yl)ethyl]-2,3-dihydro-1H-isoindol-1-one]",–,HDAC6 inhibitory rate (%) (10 μM) (10 µM): 100%
"O=C1c2cc(-c3nnc(C(F)F)o3)ccc2CN1[C@H](c1ccccc1)[C@@H](O)c1ccccc1 [Example 11, 6-[5-(difluoromethyl)-1,3,4-oxadiazol-2-yl]-2-[(1R,2S)-2-hydroxy-1,2-diphenylethyl]-2,3-dihydro-1H-isoindol-1-one]",99,–
"O=C1c2cc(-c3nnc(C(F)F)o3)ccc2CN1[C@H](C1CC1)[C@@H](O)c1ccc(F)nc1 [Example 63, 2-[(1R,2S)-1-cyclopropyl-2-(6-fluoropyridin-3-yl)-2-hydroxyethyl]-6-[5-(difluoromethyl)-1,3,4-oxadiazol-2-yl]-2,3-dihydro-1H-isoindol-1-one]",100,–

# Further lines, with some results ahead:
inhibition at 10 µM [%],SMILES,also measured
101,"O=C1c2cc(-c3nnc(C(F)F)o3)ccc2CN1[C@H](c1cccc(F)n1)[C@@H](O)c1cccc(F)n1 (single isomer, unassigned) [Example 117, 2-[(1R*,2R*)-1,2-bis(6-fluoropyridin-2-yl)-2-hydroxyethyl]-6-[5-(difluoromethyl)-1,3,4-oxadiazol-2-yl]-2,3-dihydro-1H-isoindol-1-one]",–
101,"O=C1c2cc(-c3nnc(C(F)F)o3)ccc2CN1[C@H](c1cccnn1)[C@@H](O)c1cccc(Cl)c1 (relative stereo) [Example 121, 2-[(1R*,2S)-2-(3-chlorophenyl)-2-hydroxy-1-(pyridazin-3-yl)ethyl]-6-[5-(difluoromethyl)-1,3,4-oxadiazol-2-yl]-2,3-dihydro-1H-isoindol-1-one]",–
100,"O=C1c2cc(-c3nnc(C(F)F)o3)ccc2CN1[C@@H](c1ccc(F)cn1)[C@H](O)c1ccc(F)cn1 (stereo in doubt) [Example 6, 2-[(1S,2S)-1,2-bis(5-fluoropyridin-2-yl)-2-hydroxyethyl]-6-[5-(difluoromethyl)-1,3,4-oxadiazol-2-yl]-2,3-dihydro-1H-isoindol-1-one]",–
99,"O=C1c2cc(-c3nnc(C(F)F)o3)ccc2CN1[C@H](c1ncccn1)[C@H](O)c1cccc(F)c1 (racemic) [Example 136, 6-[5-(difluoromethyl)-1,3,4-oxadiazol-2-yl]-2-[(1RS,2RS)-2-(3-fluorophenyl)-2-hydroxy-1-(pyrimidin-2-yl)ethyl]-2,3-dihydro-1H-isoindol-1-one]",–
97,"O=C1c2cc(-c3nnc(C(F)F)o3)ccc2CN1[C@H](c1ccc(F)cc1F)[C@@H](O)c1ccccn1 (racemic) [Example 31, 6-[5-(difluoromethyl)-1,3,4-oxadiazol-2-yl]-2-[(1RS,2RS)-1-(2,4-difluorophenyl)-2-hydroxy-2-(pyridin-2-yl)ethyl]-2,3-dihydro-1H-isoindol-1-one]",–
